Key:
[1] = test system: anti-Thy 1 glomerulonephritis; assay: Immunofluorescent staining of glomerular fibronectin EDA+ and collagen I; assay type: in vivo, Sprague Dawley rats; details: enalapril alone
Procedure: These experiments were performed on male Sprague Dawley rats (200-250 g) obtained from the Sasco colony of Charles River Laboratories (Wilmington, Mass., USA). Animal housing and care were in accordance with the NIH Guide for the Care and Use of Laboratory Animals, NIH Publication No. 85-23, 1985. Animals were fed a normal protein diet (22% protein, Teklad No. 86 550, Teklad Premier Laboratory Diets, Madison, Wis., USA). Glomerulonephritis was induced by tail vein injection of 2.25 mg/Kg of the monoclonal anti-Thy 1.1 antibody OX-7 (NCCC, Biovest International Inc, Minneapolis, Minn., USA). OX-7 binds to a Thy 1-like epitope on the surface of mesangial cells causing complement-dependent cell lysis followed by fibrotic tissue repair (Bagchus et al., Lab Invest. 55:680-687 (1986)). Control animals were injected with similar volumes of phosphate-buffered saline (PBS). […] The intensity of glomerular staining of collagen I and fibronectin was evaluated according to a 0 to 4 scale, which has been described in detail previously (Yamamoto et al., Kidney Int. 49:461-469 (1996)). The number of cells per glomerulus, staining positive for the monocyte/macrophage marker ED1, were counted. Thirty glomeruli per sample were evaluated. The mean values with standard error values were calculated. […] The percent reduction in disease severity in a treated group was calculated as: […]

[2] = test system: Normal fetal human mesangial cells; assay: Renin-induced TGFβ production by fetal human mesangial cells (ELISA); assay type: cell-based; details: 10^−5 M inhibitor added at zero time with 10^−7 M human recombinant renin, FIG. 3
Procedure: Normal fetal human mesangial cells (Clonetics Corp., Clonetics, Walkersville, Md.) passaged 5 to 8 times, were plated (3,000 cell/cm^2) in 12 well plates in 2 ml of medium (Mesangial Basal Medium (Clonetics Corp.) containing 5% FCS, 10 μg/ml penicillin and 100 μg/ml streptomycin) and allowed to grow to confluence for 48 hours at 37EC, 5% CO2. Cultures were washed three times using sterile phosphate buffered saline at room temperature and then 2 ml/well of serum free MBM medium to induce quiescence. After 48 hours, the serum-free medium was removed and 2 ml/well of fresh serum-free medium was added. Human recombinant renin (Hoffman-La Roche Ltd., Basel, Switzerland) in concentrations from 10^−6 to 10^−12 M was added to each well. A blank and 5 ng/ml of TGFβ (R & D Systems, Minneapolis, Minn.) were used as controls. Cells and supernatants were harvested by centrifugation after 24 hrs of culture and frozen at ^−70EC until analysis. The total production and release of TGFβ into the culture supernatant was measured using an ELISA kit (R & D Systems). Induction of PAI-1 and fibronectin in the supernatant are also measured using anti-PAI-1 and anti-fibronectin antibodies in an ELISA to provide further confirmation of the inhibition of TGFβ. TGFβ, fibronectin and PAI-1 mRNA are measured using semi-quantitative RT-PCR.
Renin inhibitor Ro42-5892 (Hoffman-LaRoche, Basel, Switzerland), Losartan™ (Merck Pharmaceuticals, West Point, Pa.), Enalapril™ (Sigma Chemical Co., St. Louis, Mo., Prod. No. E6888), or TGFβ1 neutralizing antibody (R & D Systems) were added in the amounts indicated below to separate wells in triplicate to block the renin cascade at different sites after stimulation by renin: • 10^−5 M Renin Inhibitor R042-5892 (Hoffman-LaRoche) • 30 ng/ml Anti-TGFβ1 antibody (R & D Systems, #AB 101 NA) • 30 ng/ml Chicken IgG (control for anti-TGFβ1 antibody, R & D Systems, # AB 101 C) • 10^−5 M Enalapril™ (Sigma Chemical Co., St. Louis, Mo.) • 10^−5 M Losartan™ (Merck Pharmaceuticals, West Point, Pa.)
These inhibitors were added at zero time with 10^−7 M human recombinant renin (Hoffman-LaRoche).

## CCOC(=O)[C@H](CCc1ccccc1)N[C@@H](C)C(=O)N1CCC[C@H]1C(=O)O [enalapril]
[1]
  reduction of collagen I immunostaining: 33%
  reduction of fibronectin immunostaining: 36%
[2]
  renin-induced increase in TGFβ production: does not reduce the renin-induced increase in TGFβ production
